Laboratory results: patent US11998532B1 (priority 2023, dated 2024)
≈ marks a conversion by molar mass, not a printed value.

What follows are compounds tested on Susceptible (H37Rv) strain of Mycobacterium tuberculosis (assay: Resazurin Microplate Assay (REMA), anti-tubercular activity, H37Rv). Details: 192 h, read-out: MIC Susceptible (H37Rv).
Format: cell-based
In the case of `COc1ccc(Cl)cc1-n1ncc(-c2nnc(-c3ccc(C)c(Br)c3)o2)c1C` [Compound 7c, 2-(3-Bromo-4-methylphenyl)-5-(1-(5-chloro-2-methoxyphenyl)-5-methyl-1H-pyrazol-4-yl)-1,3,4-oxadiazole], the MIC was 16 µg/mL (≈ 34.8 µM). In the case of `COc1ccc(Cl)cc1-n1ncc(-c2nnc(-c3ccc(F)cc3)o2)c1C` [Compound 7b, 2-(1-(5-Chloro-2-methoxyphenyl)-5-methyl-1H-pyrazol-4-yl)-5-(4-fluorophenyl)-1,3,4-oxadiazole], the MIC was 4 µg/mL (≈ 10.4 µM). In the case of `COc1ccc(Cl)cc1-n1ncc(-c2nnc(-c3ccc(Br)c(C)c3)o2)c1C` [Compound 7f, 2-(4-Bromo-3-methylphenyl)-5-(1-(5-chloro-2-methoxyphenyl)-5-methyl-1H-pyrazol-4-yl)-1,3,4-oxadiazole], the MIC was 32 µg/mL (≈ 69.6 µM). For `COc1ccc(Cl)cc1-n1ncc(-c2nnc(-c3ccc(Cl)cc3)o2)c1C` [Compound 7a, 2-(1-(5-Chloro-2-methoxyphenyl)-5-methyl-1H-pyrazol-4-yl)-5-(4-chlorophenyl)-1,3,4-oxadiazole], the MIC was 4 µg/mL (≈ 9.97 µM). `COc1ccc(Cl)cc1-n1ncc(-c2nnc(-c3ccccc3)o2)c1C` [Compound 7d, 2-(1-(5-Chloro-2-methoxyphenyl)-5-methyl-1H-pyrazol-4-yl)-5-phenyl-1,3,4-oxadiazole] gave an MIC of 16 µg/mL (≈ 43.6 µM). For `COc1ccc(Cl)cc1-n1ncc(-c2nnc(-c3ccc(Cl)c(Cl)c3)o2)c1C` [Compound 7i, 2-(1-(5-Chloro-2-methoxyphenyl)-5-methyl-1H-pyrazol-4-yl)-5-(3,4-dichlorophenyl)-1,3,4-oxadiazole], the MIC was 16 µg/mL (≈ 36.7 µM). Work on `COc1ccc(Cl)cc1-n1ncc(-c2nnc(-c3cccc(F)c3)o2)c1C` [Compound 7g, 2-(1-(5-Chloro-2-methoxyphenyl)-5-methyl-1H-pyrazol-4-yl)-5-(3-fluorophenyl)-1,3,4-oxadiazole] yielded an MIC of 8 µg/mL (≈ 20.8 µM). For `COc1ccc(Cl)cc1-n1ncc(-c2nnc(-c3ccc(Br)cc3)o2)c1C` [Compound 7e, 2-(4-Bromophenyl)-5-(1-(5-chloro-2-methoxyphenyl)-5-methyl-1H-pyrazol-4-yl)-1,3,4-oxadiazole], the MIC was 8 µg/mL (≈ 17.9 µM). For `COc1ccc(Cl)cc1-n1ncc(-c2nnc(-c3ccc(C)c([N+](=O)[O-])c3)o2)c1C` [Compound 7j, 2-(1-(5-Chloro-2-methoxyphenyl)-5-methyl-1H-pyrazol-4-yl)-5-(4-methyl-3-nitrophenyl)-1,3,4-oxadiazole], the MIC was 32 µg/mL (≈ 75.1 µM). With `COc1ccc(Cl)cc1-n1ncc(-c2nnc(-c3cc(Cl)cc(Cl)c3)o2)c1C` [Compound 7h, 2-(1-(5-Chloro-2-methoxyphenyl)-5-methyl-1H-pyrazol-4-yl)-5-(3,5-dichlorophenyl)-1,3,4-oxadiazole] the MIC was 4 µg/mL (≈ 9.18 µM).
